Laboratory results reported in patent publication US4157400A, “Terpenophenoxyalkylamines and pharmaceutical compositions and uses thereof” (MAR-PHA, Societe d'Etude et d'Exploitation de Marques, priority 1976, dated 1979).
Values after ≈ are worked out from the molar mass of the structure shown.

Legend:
[1] = test system: tachycardia induced by isoproterenol; assay: Beta-sympatholytic activity: antagonism of isoproterenol-induced tachycardia in the non-anesthetized rabbit; type: in vivo; settings: for Maximum Inhibition of tachycardia (as a %): isoproterenol 0.010 mg/kg i.v.
Description: The technique consists of evaluating the antagonism exerted by the products with regard to induced tachycardia, in an alert rabbit, by a sympatho-stimulant agent, isoproterenol, administered in a dose of 0.010 mg/kg intravenously. The animal is placed in a restraining box and the marginal vein of the ear is catheterized. The animal's electrocardiogram is picked up by two electrodes implanted in shunt DII and connected to a telemetric transmitter. A polygraph, coupled to a receiver, simultaneously records the electrocardiogram and the cardiac rhythm by integration of the waves R.
First of all, one makes certain of the stability and reproducibility of isoprenalinic tachycardia and the substance to be studied is administered. In the case of intravenous administration of the products, the injections of isoproterenol are then repeated 5 minutes later, then every 15 minutes, until the tachycardia returns to its initial intensity. When the products are administered orally, the injections of the beta-stimulant are repeated 15, 30, 45 and 60 minutes, then 2, 3, 5, 24 and 48 hours afterwards.
The beta-sympatholytic activity is expressed by the maximum percentage decrease of the tachycardia induced by isoproterenol. The total duration of the effect is also noted.

[2] = Acute toxicity in the mouse (LD50); settings: in vivo, male CD1 mouse, 3 days observation
Description: Acute toxicities of the compounds according to the invention have been determined in the male mouse CD1 (Charles RIVER) both intravenously and orally. The LD50 were calculated after observation for 3 days by the method of REED, JJ. and MUENCH, H. (Am. J. Hy, 27 493, 1938).

[3] = test system: removed duodenum of the rat, contractions caused by acetylcholine; assay: Spasmolytic activity on the detached duodenum of the rat, neurotrope (versus acetylcholine; Magnus)
Source text: (§1) The spasmolytic neurotropes inhibit the contractions of the organ caused by acetylcholine,whereas the musculotropes prevent the spasms induced by barium chloride. The following table summarises the results expressed as a 50% effective concentration (EC50) in mg/l.

[4] = test system: removed duodenum of the rat, spasms induced by barium chloride; assay: Spasmolytic activity on the detached duodenum of the rat, musculotrope (versus BaCl2; Magnus)
Source text: as §1

rabbit's heart = assay: Coronaro-dilatory activity on the isolated rabbit heart (technique derived from Langendorff)
Description: In this technique, the survival liquid perfusing the heart contains 0.5 I.U./l post-hypophysis intended for permanently maintaining a slight vaso-constriction of the coronary vascular system. The products to be studied are administered in the region of the aortic canal in a volume of 1 cm^3 over a period of 1 minute. The results are expressed as a percentage variation of the coronary output after the injection of the product with respect to the initial output, the output being measured by integration of the frequency of drops of survival liquid escaping from the heart after having passed through the coronary system.

Row | Compound | Duration of Inhibiting effect ([1]; intravenous dose 0.5 mg/kg) | Maximum Inhibition of tachycardia (as a %) ([1]; intravenous dose 0.5 mg/kg) [%] | Duration of Inhibiting effect ([1]; intravenous dose 1 mg/kg) | Maximum Inhibition of tachycardia (as a %) ([1]; intravenous dose 1 mg/kg) [%] | Duration of Inhibiting effect ([1]; oral dose 17.5 mg/kg) | Maximum Inhibition of tachycardia (as a %) ([1]; oral dose 17.5 mg/kg) [%] | Duration of Inhibiting effect ([1]; oral dose 35 mg/kg) | Maximum Inhibition of tachycardia (as a %) ([1]; oral dose 35 mg/kg) [%] | Duration of Inhibiting effect ([1]; oral dose 75 mg/kg) | Maximum Inhibition of tachycardia (as a %) ([1]; oral dose 75 mg/kg) [%] | Duration of Inhibiting effect ([1]; oral dose 150 mg/kg) | Maximum Inhibition of tachycardia (as a %) ([1]; oral dose 150 mg/kg) [%] | LD50 at 72 h ([2]; iv, intravenously) [mg/kg] | LD50 at 72 h ([2]; po, orally) [mg/kg] | EC50 [3] [µg/mL] | EC50 [4] [µg/mL] | further results
1 | CC(C)NCC(O)COc1ccccc1[C@H]1C[C@H]2CC[C@@H]1C2 (relative stereo) [Example 2, 1-isopropylamino-3-[2-(2-norbornyl endo)phenoxy]propan-2-ol] | approx. 40 mins | 20 | approx. 4 hrs | 67 | approx. 24 hrs | 64 | approx. 48 hrs | 60 | approx. 48 hrs | 80 | approx. 48 hrs | 81 | 62 | 675 | 0.3 (≈ 0.989 µM) | 0.04 (≈ 0.132 µM) | –
2 | CC(C)NCC(O)COc1ccccc1[C@@H]1C[C@H]2CC[C@@H]1C2 (relative stereo) [Example 1, 1-isopropylamino-3-[2-(2-norbornyl exo)phenoxy]propan-2-ol] | more than 2 hrs | 54 | more than 2 hrs | 86 | approx. 24 hrs | 73 | approx. 48 hrs | 88 | approx. 48 hrs | 80 | more than 48 hrs | 82 | 60 | 800 | 0.18 (≈ 0.593 µM) | 0.15 (≈ 0.494 µM) | Duration of Inhibiting effect ([1]; intravenous dose 0.1 mg/kg): approx. 50 minutes; Maximum Inhibition of tachycardia (as a %) ([1]; intravenous dose 0.1 mg/kg): 24%; Duration of Inhibiting effect ([1]; intravenous dose 0.3 mg/kg): approx 21/2; Maximum Inhibition of tachycardia (as a %) ([1]; intravenous dose 0.3 mg/kg): 67%; Duration of Inhibiting effect ([1]; oral dose 9 mg/kg): more than 3 hrs; Maximum Inhibition of tachycardia (as a %) ([1]; oral dose 9 mg/kg): 40%; activation at 0.003 µg/mL (rabbit's heart; Oryctolagus cuniculus, dose 0.003 mg/l, increase (+) versus initial output, post-hypophysis 0.5 I.U./l, read-out: % Variation of coronary output): 13%; activation at 0.01 µg/mL (rabbit's heart; Oryctolagus cuniculus, dose 0.010 mg/l, increase (+) versus initial output, post-hypophysis 0.5 I.U./l, read-out: % Variation of coronary output): 57%; activation at 0.03 µg/mL (rabbit's heart; Oryctolagus cuniculus, dose 0.030 mg/l, increase (+) versus initial output, post-hypophysis 0.5 I.U./l, read-out: % Variation of coronary output): 133%; activation at 0.1 µg/mL (rabbit's heart; Oryctolagus cuniculus, dose 0.100 mg/l, increase (+) versus initial output, post-hypophysis 0.5 I.U./l, read-out: % Variation of coronary output): 225%; Duration of the effect (rabbit's heart; dose 0.003 mg/l): 3 min; Duration of the effect (rabbit's heart; dose 0.010 mg/l): 3 min; Duration of the effect (rabbit's heart; dose 0.030 mg/l): 15 min; Duration of the effect (rabbit's heart; dose 0.100 mg/l): 9 min; coronaro-dilatory effects (in words) (rabbit's heart; isolated rabbit heart): considerable coronaro-dilatory effects, whose intensity and duration clearly increase with the concentration
